# Read-outs that look alike come from different tables or passages of the source.
# Tests used:
# E. coli LpxC = E. coli LpxC (Escherichia coli (strain K12), UniProt P0A725); assay: in vitro substrate deacetylation assay for inhibition of LpxC (ADDA analysis); assay type: biochemical; settings: 5 nM E. coli LpxC, 2.5 μM substrate, 1 hour at room temperature
# Protocol: (§1) Exemplary compounds from the above Examples were tested for ability to inhibit LpxC activity using an in vitro substrate deacetylation assay with ADDA™ analysis. Assay procedures and results are described below.
# Dilutions of test compound were pre-incubated with 5 nM P. aeruginosa or E. coli LpxC for 10 minutes at room temperature in 50 mM NaH2PO4, 500 mM sucrose, 0.2 mg/mL BSA, pH 7.2 and <1% DMSO. Reactions were initiated by the addition of 2× substrate (UDP-3-O—(R-3-hydroxydecanoyl)-N-acetylglucosamine, Carbosynth Ltd, UK, for P. aeruginosa LpxC and UDP-3-O—(R-3-hydroxymyristoyl)-N-acetylglucosamine, BOC Sciences, USA, for E. coli LpxC), in 50 mM NaH2PO4, 0.5 mg/mL BSA, pH 7.2, to a final concentration of 2.5 μM. Reactions proceeded for 1 hour at room temperature prior to quenching with and equal volume of 2% acetic acid.
# For ADDA™ analysis, an aliquot of assay sample was withdrawn from each well of the 384-well plate and applied to a Hypercarb cartridge (Optimize Technologies, USA) under conditions designed to retain analytes of interest. Analytes were eluted using 1:1:2 acetone:acetonitrile:water containing 5 mM ammonium acetate then analysed by triple-quadrupole mass spectrometry. Mass spectrometry was carried out using electrospray ionization in negative ion mode. Daughter ion peaks representing detected substrate (P. aeruginosa: parent Q1 mass=775.8 amu, daughter Q3 mass=384.7 amu E. coli: parent Q1 mass=833.0 amu, daughter Q3 mass=385.0 amu, collision energy=analyte specific, dwell time=50 ms) were identified using a multiple-reaction monitoring protocol.
# Total activity (0% inhibition) was obtained from reactions containing no compound, and 100% inhibition is defined as reactions in the presence of 1 μM CHIR-090 (N-[(1S,2R)-2-hydroxy-1-[(hydroxyamino)carbonyl]propyl]-4-[2-[4-(4-morpholinylmethyl)phenyl]ethynyl]-benzamide). For IC50 determinations, peak areas of the substrate and product were compared to compute the proportion of substrate reacted by the LpxC enzyme at each compound concentration. The fractional activity was converted to percentage inhibition and plotted against compound concentration in ActivityBase™ and fit using a four-parameter logistic using non-linear regression to yield the IC50 value.
# [1] = tested on: wild-type P. aeruginosa PAO1; assay: broth microdilution minimum inhibition concentration assay; assay type: cell-based; settings: Pseudomonas aeruginosa
# Protocol: (§2) Exemplary compounds from the above Examples were tested to determine their minimum inhibitory concentration (MIC) for exemplary strains of Eschericia and Pseudomonas bacteria using broth microdilution methods. Assay procedures and results are described below.
# (§3) Broth microdilution assays were conducted according to Clinical and Laboratory Standards Institute guidelines (CLSI, M07-A11: Clinical and Laboratory Standards Institute. Methods for Dilution Antimicrobial Susceptibility Tests for Bacteria that Grow Aerobically; Approved Standard—11th Edition. Wayne, PA: CLSI, 2018.). Briefly, a 0.5 McFarland standard suspension was made from bacterial isolates on non-selective, solid media. The inocula were adjusted to give a bacterial concentration of 1×10^6 CFU/mL. Serial doubling-dilutions of each compound were prepared in cation-adjusted Mueller-Hinton broth (Sigma-Aldrich) in 96-well microdilution plates. A 50 μL aliquot of the inoculum was added to each microdilution plate and, within 15 minutes, incubated at 37° C. in air for 16-20 h. […] The test was controlled by the determination of piperacillin MIC against both E. coli ATCC 25922 and P. aeruginosa ATCC 27853 and ensuring accordance with the ranges published in CLSI supplementary document M100 (CLSI, M100Ed29: Clinical and Laboratory Standards Institute. Performance Standards for Antimicrobial Susceptibility Testing, 29th Edition. Wayne, PA: CLSI, 2018.).
# (§4) Multiple enterobacteriaceae strains were tested, including E. coli ATCC 25922 and K. pneumoniae ATCC 43816. WT E. coli BW25113 was tested with an isogenic mutant deficient in acrA mediated efflux by clean deletion. WT P. aeruginosa PAO1 was tested with an isogenic mutant deficient in MexA mediated efflux by clean deletion.
# (§5) Experimental results are provided in Table 4, which provides MIC values for wild-type E. coli BW25113 (“E. coli WT MIC”), an isogenic mutant deficient in acrA mediated efflux by clean deletion (“E. coli KO MIC”), wild-type P. aeruginosa PAO1 (“P. aeruginosa WT MIC”), and an isogenic mutant deficient in MexA mediated efflux by clean deletion (“[…]”).
# [2] = tested on: E. coli BW25113 isogenic mutant deficient in acrA mediated efflux; assay: as above; assay type: cell-based; settings: Escherichia coli, BW25113, read-out: E. coli KO MIC
# Protocol: as §2, §3, §4, §5
# [3] = tested on: P. aeruginosa PAO1 isogenic mutant deficient in MexA mediated efflux; assay: as above; assay type: cell-based; settings: Pseudomonas aeruginosa, PAO1, read-out: P. aeruginosa KO MIC
# Protocol: as §2, §3, §4, §5
# [4] = tested on: wild-type E. coli BW25113; assay: as above; assay type: cell-based; settings: Escherichia coli; wild-type E. coli BW25113, 37° C. 16-20 h; read-out: E. coli WT MIC
# Protocol: as §2, §3, §4, §5
# P. aeruginosa LpxC = P. aeruginosa LpxC (Pseudomonas aeruginosa (strain ATCC 15692 / DSM 22644 / CIP 104116 / JCM 14847 / LMG 12228 / 1C / PRS 101 / PAO1), UniProt P47205); assay: biochemical; assay type: biochemical; settings: 5 nM P. aeruginosa LpxC, 2.5 μM substrate, 1 hour at room temperature
# Protocol: as §1
# For ADDA™ analysis, an aliquot of assay sample was withdrawn from each well of the 384-well plate and applied to a Hypercarb cartridge (Optimize Technologies, USA) under conditions designed to retain analytes of interest. Analytes were eluted using 1:1:2 acetone:acetonitrile:water containing 5 mM ammonium acetate then analysed by triple-quadrupole mass spectrometry. Mass spectrometry was carried out using electrospray ionization in negative ion mode.
# For IC50 determinations, peak areas of the substrate and product were compared to compute the proportion of substrate reacted by the LpxC enzyme at each compound concentration.
# [5] = PAO1, read-out: P. aeruginosa WT MIC
# E. coli LpxC, sequence (P0A725 whole entry): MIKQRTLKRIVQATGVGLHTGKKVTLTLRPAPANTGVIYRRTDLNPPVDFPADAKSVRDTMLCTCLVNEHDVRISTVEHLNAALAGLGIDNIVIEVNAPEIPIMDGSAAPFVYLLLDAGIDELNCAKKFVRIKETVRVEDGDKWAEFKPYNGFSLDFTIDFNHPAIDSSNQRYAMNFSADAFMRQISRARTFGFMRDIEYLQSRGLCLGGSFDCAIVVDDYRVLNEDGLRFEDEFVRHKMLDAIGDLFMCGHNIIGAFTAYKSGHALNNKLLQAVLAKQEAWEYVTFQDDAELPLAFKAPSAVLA
structure (smiles),measurement,setting,value
"O=C(O)CN1C[C@H](NC(=O)[C@@H]2C[C@H](F)CN2)C[C@@H]1C(=O)NCc1ccc(C#CC#CC2CC2)cc1 [Example 9AN, 2-((2R,4R)-2-((4-(Cyclopropylbuta-1,3-diyn-1-yl)benzyl)carbamoyl)-4-((2S,4S)-4-fluoropyrrolidine-2-carboxamido)pyrrolidin-1-yl)acetic acid]",IC50,E. coli LpxC,< 500 nM
same,MIC,[1]; [5],> 100 µM
same,MIC,[2],> 100 µM
same,MIC,[3],20 to 100 µM
same,MIC,[4],> 100 µM
same,IC50,P. aeruginosa LpxC,50 to 100 nM
CC(C)C(=O)N1C[C@H](NC(=O)[C@H]2NCC[C@H]2O)C[C@@H]1C(=O)NCc1ccc(C#Cc2ccc(CN3CCOCC3)cc2)cc1 [Example 9V],IC50,E. coli LpxC,2500 to 10000 nM
same,MIC,[1]; [5],> 100 µM
same,MIC,[2],> 100 µM
same,MIC,[3],> 100 µM
same,MIC,[4],> 100 µM
same,IC50,P. aeruginosa LpxC,100 to 1000 nM
"CC(C)C(=O)N1C[C@H](NC(=O)[C@H]2NCC[C@H]2O)C[C@@H]1C(=O)NCc1ccc(C#CC#CC2CC2)cc1 [Example 9W, (2R,4R)—N-(4-(cyclopropylbuta-1,3-diyn-1-yl)benzyl)-4-((2S,3R)-3-hydroxypyrrolidine-2-carboxamido)-1-isobutyrylpyrrolidine-2-carboxamide]",IC50,E. coli LpxC,> 10000 nM
same,MIC,[1]; [5],> 100 µM
same,MIC,[2],> 100 µM
same,MIC,[3],> 100 µM
same,MIC,[4],> 100 µM
same,IC50,P. aeruginosa LpxC,100 to 1000 nM
CS(=O)(=O)CCN1C[C@H](NC(=O)[C@@H]2C[C@H](F)CN2)C[C@@H]1C(=O)NCc1ccc(C#CC#CC2CC2)cc1 [Example 9AP],IC50,E. coli LpxC,500 to 2500 nM
same,MIC,[1]; [5],> 100 µM
same,MIC,[2],> 100 µM
same,MIC,[3],> 100 µM
same,MIC,[4],> 100 µM
same,IC50,P. aeruginosa LpxC,100 to 1000 nM
CC(C)C(=O)N1C[C@H](NC(=O)[C@@H]2CCCN2)C[C@@H]1C(=O)NCc1ccc(C#Cc2ccccc2)cc1 [Example 9J],IC50,E. coli LpxC,2500 to 10000 nM
same,MIC,[1]; [5],> 100 µM
same,MIC,[2],20 to 100 µM
same,MIC,[3],> 100 µM
same,MIC,[4],> 100 µM
same,IC50,P. aeruginosa LpxC,100 to 1000 nM
"CC(C)C(=O)N1C[C@H](NC(=O)[C@@H]2C[C@H](C#N)CN2)C[C@@H]1C(=O)NCc1ccc(C#Cc2ccc(CN3CCOCC3)cc2)cc1 [Example 9AD, (2R,4R)-4-((2S,4S)-4-Cyanopyrrolidine-2-carboxamido)-1-isobutyryl-N-(4-((4-(morpholinomethyl)phenyl)ethynyl)benzyl)pyrrolidine-2-carboxamide]",IC50,E. coli LpxC,< 500 nM
same,MIC,"[1]; wild-type P. aeruginosa PAO1, 37° C. 16-20 h, read-out: P. aeruginosa WT MIC",> 100 µM
same,MIC,[2],20 to 100 µM
same,MIC,[3],< 20 µM
same,MIC,[4],> 100 µM
same,IC50,P. aeruginosa LpxC,< 50 nM
CC(C)C(=O)N1C[C@H](NC(=O)[C@@H]2CCCN2)C[C@@H]1C(=O)NCc1ccc(C#Cc2ccc(CN3CCOCC3)cc2)cc1 [Example 9K],IC50,E. coli LpxC,500 to 2500 nM
same,MIC,[1]; [5],> 100 µM
same,MIC,[2],20 to 100 µM
same,MIC,[3],20 to 100 µM
same,MIC,[4],> 100 µM
same,IC50,P. aeruginosa LpxC,50 to 100 nM
CC(C)C(=O)N1C[C@H](NC(=O)[C@@H]2C[C@H](F)CN2)C[C@@H]1C(=O)NCc1ccc(C#Cc2ccccc2)cc1 [Example 9A],MIC,[1]; [5],> 100 µM
same,MIC,[2],20 to 100 µM
same,MIC,[3],20 to 100 µM
same,MIC,[4],> 100 µM
CC(C)C(=O)N1C[C@H](NC(=O)[C@@H]2C[C@@H](F)CN2)C[C@@H]1C(=O)NCc1ccc(C#Cc2ccccc2)cc1 [Example 9E],MIC,[1]; [5],> 100 µM
same,MIC,[2],> 100 µM
same,MIC,[3],> 100 µM
same,MIC,[4],> 100 µM
CC(C)C(=O)N1C[C@H](NC(=O)[C@@H]2C[C@H](O)CN2)C[C@@H]1C(=O)NCc1ccc(C#CC#CC2CC2)cc1 [Example 9U],MIC,[1]; [5],> 100 µM
same,MIC,[2],> 100 µM
same,MIC,[3],20 to 100 µM
same,MIC,[4],> 100 µM
CC(C)C(=O)N1C[C@H](NC(=O)[C@@H]2C[C@@H](O)CN2)C[C@@H]1C(=O)NCc1ccc(C#CC#CC2CC2)cc1 [Example 9Z],MIC,[1]; [5],> 100 µM
same,MIC,[2],20 to 100 µM
same,MIC,[3],20 to 100 µM
same,MIC,[4],> 100 µM
